Results: ChEMBL document CHEMBL3885881, “DrugMatrix”

Species: Rattus norvegicus
Test: DrugMatrix - Regimen: Daily Repeat
Assay type: toxicity, organism-based, Sprague-Dawley
Parameters: regimen Daily Repeat, gender Male, age 6-8 weeks
Settings: in vivo, po, route oral GAVAGE, […]; for ABSOLUTE BASOPHIL / ABSOLUTE EOSINOPHIL / ABSOLUTE LYMPHOCYTE / ABSOLUTE MONOCYTE / ABSOLUTE SEGMENTED NEUTROPHIL / BASOPHIL / EOSINOPHIL / ERYTHROCYTE COUNT / HEMATOCRIT / HEMOGLOBIN / LEUKOCYTE COUNT / LYMPHOCYTE / MEAN CORPUSCULAR HEMOGLOBIN / MEAN CORPUSCULAR HEMOGLOBIN CONCENTRATION / MEAN CORPUSCULAR VOLUME / MONOCYTE / NEUTROPHIL / NUCLEATED RED BLOOD CELLS / PLATELET COUNT: tissue Blood; for ALANINE AMINOTRANSFERASE / ALBUMIN / ALKALINE PHOSPHATASE / ASPARTATE AMINOTRANSFERASE / BLOOD UREA NITROGEN / CARBON DIOXIDE / CHLORIDE / CHOLESTEROL / CREATINE PHOSPHOKINASE / CREATININE / GLUCOSE / LACTATE DEHYDROGENASE / LIPASE / PHOSPHORUS / POTASSIUM / SODIUM / TOTAL BILIRUBIN / TOTAL PROTEIN / URIC ACID: tissue Plasma
[1] = 25 mg/kg, 72 h, dose level Low, time 3 day
[2] = 25 mg/kg, 120 h, dose level Low, time 5 day
[3] = 100 mg/kg, 72 h, dose level High, time 3 day
[4] = 100 mg/kg, 120 h, dose level High, time 5 day

In the case of CN(C)CCCN1c2ccccc2Sc2ccccc21 [PROMAZINE], the “ABSOLUTE BASOPHIL” value [1] is reported as 0 CELLS/uL, the “ABSOLUTE EOSINOPHIL” value [1] is reported as 145.33 CELLS/uL and the “ABSOLUTE LYMPHOCYTE” value [1] is reported as 11142.33 CELLS/uL. The “ABSOLUTE MONOCYTE” value [1] was 92 CELLS/uL, the “ABSOLUTE SEGMENTED NEUTROPHIL” value [1] was 1153.67 CELLS/uL and the BASOPHIL [1] was 0%. The EOSINOPHIL [1] was 0.67%, the “ERYTHROCYTE COUNT” value [1] was 5.31 x10E6/uL and the HEMATOCRIT [1] was 33.93%. For the same compound, the HEMOGLOBIN [1] was 13.5 G/DL, the “LEUKOCYTE COUNT” value [1] was 12.53 x10E3/uL and the LYMPHOCYTE [1] was 87.67%. The “MEAN CORPUSCULAR HEMOGLOBIN” value [1] was 25.47 pg, the “MEAN CORPUSCULAR HEMOGLOBIN CONCENTRATION” value [1] was 39.77 G/DL and the “MEAN CORPUSCULAR VOLUME” value [1] was 63.93 fL. The MONOCYTE [1] was 1.33%, the NEUTROPHIL [1] was 10.33% and the “NUCLEATED RED BLOOD CELLS” value [1] was 0.67 /100WBC. For the same compound, the “PLATELET COUNT” value [1] was 1124.33 x10E3/uL, the “ALANINE AMINOTRANSFERASE” value [1] was 95 u/L and the ALBUMIN [1] was 4.03 G/DL. For the same compound, the “ALKALINE PHOSPHATASE” value [1] was 542.33 u/L, the “ASPARTATE AMINOTRANSFERASE” value [1] was 104 u/L and the “BLOOD UREA NITROGEN” value [1] was 14 mg/dL. For the same compound, the “CARBON DIOXIDE” value [1] was 32 mmol/L, the CHLORIDE [1] was 101.67 MEQ/L and the CHOLESTEROL [1] was 76.67 mg/dL. For the same compound, the “CREATINE PHOSPHOKINASE” value [1] was 359.33 u/L, the CREATININE [1] was 0.17 mg/dL and the GLUCOSE [1] was 185.67 mg/dL. The “LACTATE DEHYDROGENASE” value [1] was 147.67 u/L, the LIPASE [1] was 9.33 u/L and the PHOSPHORUS [1] was 12.17 mg/dL. For the same compound, the POTASSIUM [1] was 6.17 MEQ/L, the SODIUM [1] was 143.27 MEQ/L and the “TOTAL BILIRUBIN” value [1] was 0.17 mg/dL. For the same compound, the “TOTAL PROTEIN” value [1] was 5.57 G/DL, the “URIC ACID” value [1] was 1.23 mg/dL and the “ABSOLUTE BASOPHIL” value [2] was 0 CELLS/uL. For the same compound, the “ABSOLUTE EOSINOPHIL” value [2] was 84.33 CELLS/uL, the “ABSOLUTE LYMPHOCYTE” value [2] was 7389.33 CELLS/uL and the “ABSOLUTE MONOCYTE” value [2] was 65.33 CELLS/uL. The “ABSOLUTE SEGMENTED NEUTROPHIL” value [2] was 894.33 CELLS/uL, the BASOPHIL [2] was 0% and the EOSINOPHIL [2] was 1%. For the same compound, the “ERYTHROCYTE COUNT” value [2] was 5.37 x10E6/uL, the HEMATOCRIT [2] was 34.2% and the HEMOGLOBIN [2] was 13.47 G/DL. The “LEUKOCYTE COUNT” value [2] was 8.43 x10E3/uL, the LYMPHOCYTE [2] was 88.67% and the “MEAN CORPUSCULAR HEMOGLOBIN” value [2] was 25.1 pg. The “MEAN CORPUSCULAR HEMOGLOBIN CONCENTRATION” value [2] was 39.4 G/DL, the “MEAN CORPUSCULAR VOLUME” value [2] was 63.67 fL and the MONOCYTE [2] was 0.67%. The NEUTROPHIL [2] was 9.67%, the “NUCLEATED RED BLOOD CELLS” value [2] was 0.33 /100WBC and the “PLATELET COUNT” value [2] was 1228.67 x10E3/uL. For the same compound, the “ALANINE AMINOTRANSFERASE” value [2] was 54.33 u/L, the ALBUMIN [2] was 4.17 G/DL and the “ALKALINE PHOSPHATASE” value [2] was 463.67 u/L. The “ASPARTATE AMINOTRANSFERASE” value [2] was 73.33 u/L, the “BLOOD UREA NITROGEN” value [2] was 15 mg/dL and the “CARBON DIOXIDE” value [2] was 28.33 mmol/L. For the same compound, the CHLORIDE [2] was 103.33 MEQ/L, the CHOLESTEROL [2] was 61.67 mg/dL and the “CREATINE PHOSPHOKINASE” value [2] was 324.67 u/L. For the same compound, the CREATININE [2] was 0.27 mg/dL, the GLUCOSE [2] was 188.67 mg/dL and the “LACTATE DEHYDROGENASE” value [2] was 154 u/L. For the same compound, the LIPASE [2] was 10.33 u/L, the PHOSPHORUS [2] was 12.03 mg/dL and the POTASSIUM [2] was 5.86 MEQ/L. The SODIUM [2] was 145.6 MEQ/L, the “TOTAL BILIRUBIN” value [2] was 0.23 mg/dL and the “TOTAL PROTEIN” value [2] was 5.97 G/DL. The “URIC ACID” value [2] was 1.8 mg/dL, the “ABSOLUTE BASOPHIL” value [3] was 0 CELLS/uL and the “ABSOLUTE EOSINOPHIL” value [3] was 0 CELLS/uL. For the same compound, the “ABSOLUTE LYMPHOCYTE” value [3] was 15637.67 CELLS/uL, the “ABSOLUTE MONOCYTE” value [3] was 123 CELLS/uL and the “ABSOLUTE SEGMENTED NEUTROPHIL” value [3] was 572.67 CELLS/uL. The BASOPHIL [3] was 0%, the EOSINOPHIL [3] was 0% and the “ERYTHROCYTE COUNT” value [3] was 6.09 x10E6/uL. The HEMATOCRIT [3] was 37.23%, the HEMOGLOBIN [3] was 15.1 G/DL and the “LEUKOCYTE COUNT” value [3] was 16.33 x10E3/uL. The LYMPHOCYTE [3] was 96%, the “MEAN CORPUSCULAR HEMOGLOBIN” value [3] was 24.83 pg and the “MEAN CORPUSCULAR HEMOGLOBIN CONCENTRATION” value [3] was 40.57 G/DL. The “MEAN CORPUSCULAR VOLUME” value [3] was 61.17 fL, the MONOCYTE [3] was 0.67% and the NEUTROPHIL [3] was 3.33%. The “NUCLEATED RED BLOOD CELLS” value [3] was 0 /100WBC, the “PLATELET COUNT” value [3] was 1276.67 x10E3/uL and the “ALANINE AMINOTRANSFERASE” value [3] was 60.33 u/L. The ALBUMIN [3] was 4.43 G/DL, the “ALKALINE PHOSPHATASE” value [3] was 366.67 u/L and the “ASPARTATE AMINOTRANSFERASE” value [3] was 101.33 u/L. The “BLOOD UREA NITROGEN” value [3] was 17 mg/dL, the “CARBON DIOXIDE” value [3] was 28 mmol/L and the CHLORIDE [3] was 101.67 MEQ/L. For the same compound, the CHOLESTEROL [3] was 88 mg/dL, the “CREATINE PHOSPHOKINASE” value [3] was 986.67 u/L and the CREATININE [3] was 0.37 mg/dL. The GLUCOSE [3] was 131.67 mg/dL, the “LACTATE DEHYDROGENASE” value [3] was 335 u/L and the LIPASE [3] was 12.67 u/L. It also gave a PHOSPHORUS [3] of 11.5 mg/dL, a POTASSIUM [3] of 6.17 MEQ/L and an SODIUM [3] of 143.73 MEQ/L. For the same compound, the “TOTAL BILIRUBIN” value [3] was 0.23 mg/dL, the “TOTAL PROTEIN” value [3] was 6.1 G/DL and the “URIC ACID” value [3] was 1.2 mg/dL. For the same compound, the “ABSOLUTE BASOPHIL” value [4] was 0 CELLS/uL, the “ABSOLUTE EOSINOPHIL” value [4] was 74.67 CELLS/uL and the “ABSOLUTE LYMPHOCYTE” value [4] was 9603.33 CELLS/uL. For the same compound, the “ABSOLUTE MONOCYTE” value [4] was 53.33 CELLS/uL, the “ABSOLUTE SEGMENTED NEUTROPHIL” value [4] was 302 CELLS/uL and the BASOPHIL [4] was 0%. For the same compound, the EOSINOPHIL [4] was 0.67%, the “ERYTHROCYTE COUNT” value [4] was 5.25 x10E6/uL and the HEMATOCRIT [4] was 32.53%. The HEMOGLOBIN [4] was 13.13 G/DL, the “LEUKOCYTE COUNT” value [4] was 10.03 x10E3/uL and the LYMPHOCYTE [4] was 95.67%. The “MEAN CORPUSCULAR HEMOGLOBIN” value [4] was 24.97 pg, the “MEAN CORPUSCULAR HEMOGLOBIN CONCENTRATION” value [4] was 40.37 G/DL and the “MEAN CORPUSCULAR VOLUME” value [4] was 61.93 fL. For the same compound, the MONOCYTE [4] was 0.67%, the NEUTROPHIL [4] was 3% and the “NUCLEATED RED BLOOD CELLS” value [4] was 0 /100WBC. For the same compound, the “PLATELET COUNT” value [4] was 1046.33 x10E3/uL, the “ALANINE AMINOTRANSFERASE” value [4] was 59.33 u/L and the ALBUMIN [4] was 4.03 G/DL. The “ALKALINE PHOSPHATASE” value [4] was 341.67 u/L, the “ASPARTATE AMINOTRANSFERASE” value [4] was 113 u/L and the “BLOOD UREA NITROGEN” value [4] was 19 mg/dL. The “CARBON DIOXIDE” value [4] was 25.67 mmol/L, the CHLORIDE [4] was 105 MEQ/L and the CHOLESTEROL [4] was 57 mg/dL. The “CREATINE PHOSPHOKINASE” value [4] was 469 u/L, the CREATININE [4] was 0.22 mg/dL and the GLUCOSE [4] was 246.33 mg/dL. For the same compound, the “LACTATE DEHYDROGENASE” value [4] was 616 u/L, the LIPASE [4] was 10.33 u/L and the PHOSPHORUS [4] was 12.93 mg/dL. For the same compound, the POTASSIUM [4] was 5.03 MEQ/L, the SODIUM [4] was 147.63 MEQ/L and the “TOTAL BILIRUBIN” value [4] was 0.2 mg/dL. The “TOTAL PROTEIN” value [4] was 5.5 G/DL and the “URIC ACID” value [4] was 2.07 mg/dL.
